Reference: US9226503B2, “Composition and method for attraction of emerald ash borer Agrilus planipennis fairmaire (coleoptera: buprestidae)” (Her Majesty the Queen in Right of Canada, as represented by …, priority 2011, dated 2016)

Tests used:
[1] = system: A. planipennis antennae; assay: GC-EAD analysis; parameters: species or system Agrilus planipennis; conditions: synthetic mixture of (3E)- and (3Z)-lactones
Procedure: A Varian CP-3380 gas chromatograph with FID detector was modified for use with a GC-EAD signal recording device (IDAC-232). EAG data were analyzed using Syntech GC-EAD software v.2.6 (SYNTECH, The Netherlands). The column used for analysis was a Supelco SPB-5 capillary (30 m×0.32 mm×0.25 μm film) in the splitless mode with helium as carrier gas. The injection port was at 220° C. and the oven temperature was programmed from 70° C., held for 1 min and then increased at 10° C./min to 240° C. and held for 30 min. A number of GC-EAD runs on male and female volatiles were carried out. Both the (3Z)-lactone and (3E)-lactone were diluted to 10 μg/ml in hexane; 1 μl of diluted pheromone was injected for each GC-EAD run.
Ten nanograms was injected for the GC-EAD analysis consisting of 90% (3Z)-lactone and 10% (3E)-lactone using a DB-1 (15 m×0.25 mm ID, 1 μm film) capillary column (J&W Scientific, Folsom, Calif.). The GC oven temperature program was 50° C. for 1 min, then increased at 20° C./min and held at 280° C. for 2 min. The GC-EAD responses of five male and five female EAB antennae were analyzed.

[2] = system: A. planipennis; assay: Two-choice Y-tube olfactometer assay; format: in vivo, Agrilus planipennis; conditions: males; lactone 10 μg, (3Z)-hexenol 5 μg; chi-square test
Procedure: A Y-tube olfactometer (Analytical Research Systems Inc, Gainsville, Fla.) was used to test for attraction of A. planipennis to lactone isomers and host volatiles. […] Each arm was connected to a cylinder that contained the stimulus. Charcoal filtered air was passed into each arm at a flow rate of 1.2 L/min. Treatments included the pheromone alone: (3Z)-lactone (10 μg); (3E)-lactone (10 μg); and 60:40 (3E):(3Z)-lactone (10 μg). Next, we tested bark sesquiterpenes and a green leaf volatile alone: Phoebe oil (25 μg and 2.5 μg) and (3Z)-hexenol (5 μg). We then tested the pheromone combined with bark sesquiterpenes: (3Z)-lactone (10 μg)+Phoebe oil (at both 25 μg and 2.5 μg); (3E)-lactone (10 μg)+Phoebe oil (at both 25 μg and 2.5 μg). Finally, we tested the pheromone combined with the green leaf volatile: (3Z)-lactone (10 μg)+(3Z)-hexenol (5 μg); and (3E)-lactone (10 μg)+(3Z)-hexenol (5 μg). Each stimulus (l μl for single compound treatments and a total of 2 μl for two-compound treatments) was diluted in hexane, placed on a strip of filter paper and given one minute for the solvent to evaporate before being placed in the olfactometer. A second filter paper, treated with the equivalent volume of solvent was placed in the other arm of the olfactometer to serve as the control. The apparatus was rinsed with acetone after each treatment, and the arm attached to the test stimulus was randomized between replicates.
For each treatment, we tested increasing numbers of adults until we obtained a minimum of 12 beetles responding to the stimuli (either positively or negatively). To obtain this minimum, we tested 15-54 beetles per treatment. For each trial, a single A. planipennis (mature virgin male or female, >10 days old) was given ten minutes to choose between the two stimuli; adults were used only once in the bioassay. […] A chi-square test was conducted for each independent trial.

[3] = system: A. planipennis; assay: Field trapping experiment 2 (2009), purple prism traps, Ontario; format: in vivo, Agrilus planipennis; conditions: as compared to the Phoebe oil alone
Procedure: Field trapping. Three trapping experiments were carried out in green ash plantations (F. pennsylvanica Marsch) with low-to-moderate A. planipennis populations about 40 km southeast of Sarnia, Ontario (42° 58′ 0 N, 82° 24′ 0 W) in 2008, 2009 and 2010. Trees at these sites were generally healthy in appearance with low or no signs of decline, and only a small number of trees had obvious signs/symptoms of infestation by A. planipennis. In Ontario sites, trees were 20-25 years old, 4-6 m tall, 10-15 cm in diameter, and spaced about 2 m apart within a row and 2.5 m between rows. In 2010, the trapping experiment was replicated at four sites in Michigan, USA, in addition to the sites in Ontario. Sites in Michigan were 10-100 years old, 10-30 m tall, 15-70 cm in diameter, and located in a mixed woodlot. […] Traps were checked every 2 weeks and A. planipennis were collected, counted and sexed. […]
The effect of each attractant on mean catch of female and male A. planipennis was analyzed independently using ANOVA and a randomized complete block design. Sites were analyzed separately in 2009 due to differences in sex ratios. In 2010, sites in Ontario were analyzed separately from those in Michigan due to the considerable differences in stand conditions and height of traps with respect to the ash canopy. […]

Structure (SMILES): O=C1C/C=C/CCCCCCCCO1 [(3E)-lactone, (3E)-dodecen-12-olide]
- GC-FID/EAD responses of male and female antennae [1]: significant responses
- attraction of males in Y-tube olfactometer vs hexane control [2]: significantly attracted
- number of male or female A. planipennis captured, effect of lactone alone or with Phoebe oil [3]: neither (3Z) nor (3E)-lactone alone, or in combination with Phoebe oil, significantly increased

Structure (SMILES): O=C1C/C=C\CCCCCCCCO1 [(3Z)-lactone, (3Z)-dodecen-12-olide]
- GC-FID/EAD responses of male and female antennae [1]: significant responses
- attraction of males in Y-tube olfactometer vs hexane control [2]: not
- number of male or female A. planipennis captured, effect of lactone alone or with Phoebe oil [3]: neither (3Z) nor (3E)-lactone alone, or in combination with Phoebe oil, significantly increased
